Assay results as given in the NIST ThermoML archive (doi:10.1021/je101191e).

What was measured:
[1] = 298.15 K; 101.33 kPa; Liquid; Pycnometric method
[2] = xn = mol fraction of the nth substance listed; conditions: 298.15 K, 101.3 kPa, Liquid; for viscosity: Concentric cylinders viscometry; for mass density: Pycnometric method

CCN(C(C)C)C(C)C [N-ethyl-N-(1-methylethyl)-1-methylethanamine]
Conditions | mass density [kg/m3]
[1] | 742

CCCCCCC(=O)[O-].CC[NH+](C(C)C)C(C)C [N-ethyl-N-isopropylpropan-2-aminium heptanoate] + CC#N
[2]
Conditions | mass density [kg/m3] | viscosity [mPa·s]
x1 = 0.1 | – | 1.09
x1 = 0.1016 | 820.6 | –
x1 = 0.2 | – | 1.826
x1 = 0.2003 | 840.8 | –
x1 = 0.3 | – | 2.51
x1 = 0.3046 | 849.7 | –
x1 = 0.4 | – | 3.875
x1 = 0.402 | 853.8 | –
x1 = 0.5 | – | 5.158
x1 = 0.5021 | 857.1 | –
x1 = 0.6 | – | 7.013
x1 = 0.6083 | 859.8 | –
x1 = 0.7 | – | 9
x1 = 0.705 | 862.3 | –
x1 = 0.8 | – | 11.6
x1 = 0.8013 | 863.9 | –
x1 = 0.9 | – | 13.5
x1 = 0.9013 | 865.4 | –
x1 = 1 | 866.5 | 12.23

CCCCCCC(=O)[O-].CC[NH+](C(C)C)C(C)C [N-ethyl-N-isopropylpropan-2-aminium heptanoate] + O
[2]
Conditions | mass density [kg/m3] | viscosity [mPa·s]
x1 = 0.0998 | 966.3 | –
x1 = 0.1 | – | 21.99
x1 = 0.198 | 936.2 | –
x1 = 0.2 | – | 43.71
x1 = 0.299 | 913.6 | –
x1 = 0.3 | – | 41.58
x1 = 0.4 | – | 31.51
x1 = 0.4007 | 900.3 | –
x1 = 0.5 | – | 26.92
x1 = 0.5007 | 889.9 | –
x1 = 0.5941 | 884 | –
x1 = 0.6 | – | 23.65
x1 = 0.6913 | 877.2 | –
x1 = 0.7 | – | 22.67
x1 = 0.7896 | 872.6 | –
x1 = 0.8 | – | 18.07
x1 = 0.9 | – | 14.44
x1 = 0.9014 | 869.5 | –
x1 = 1 | 866.5 | 12.23

CCCCCCCC(=O)[O-].CC[NH+](C(C)C)C(C)C [N-ethyl-N-isopropylpropan-2-aminium octanoate] + CC#N
[2]
Conditions | mass density [kg/m3] | viscosity [mPa·s]
x1 = 0.0948 | 815.2 | –
x1 = 0.1 | – | 1.291
x1 = 0.193 | 834.3 | –
x1 = 0.2 | – | 1.947
x1 = 0.2908 | 842.2 | –
x1 = 0.3 | – | 2.865
x1 = 0.3981 | 847.3 | –
x1 = 0.4 | – | 4.921
x1 = 0.5 | – | 6.897
x1 = 0.505 | 850 | –
x1 = 0.5846 | 852 | –
x1 = 0.6 | – | 8.725
x1 = 0.6749 | 853.3 | –
x1 = 0.7 | – | 11
x1 = 0.7994 | 855.8 | –
x1 = 0.8 | – | 13.31
x1 = 0.86 | 856.5 | –
x1 = 0.9 | – | 14.82
x1 = 1 | 858.5 | 13.52

CCCCCCCC(=O)[O-].CC[NH+](C(C)C)C(C)C [N-ethyl-N-isopropylpropan-2-aminium octanoate] + O
[2]
Conditions | mass density [kg/m3] | viscosity [mPa·s]
x1 = 0.0948 | 955.1 | –
x1 = 0.1 | – | 36.61
x1 = 0.193 | 927.3 | –
x1 = 0.2 | – | 52.36
x1 = 0.2908 | 905.7 | –
x1 = 0.3 | – | 42.39
x1 = 0.3981 | 890.6 | –
x1 = 0.4 | – | 32.19
x1 = 0.5 | – | 27.62
x1 = 0.505 | 877.4 | –
x1 = 0.5846 | 872.2 | –
x1 = 0.6 | – | 26.19
x1 = 0.6749 | 867.2 | –
x1 = 0.7 | – | 21.29
x1 = 0.7994 | 862.9 | –
x1 = 0.8 | – | 18.05
x1 = 0.86 | 861 | –
x1 = 0.9 | – | 16.65
x1 = 1 | 858.5 | 13.52

CC#N [acetonitrile] + CCCCCCC(=O)[O-].CC[NH+](C(C)C)C(C)C
[2], x2 = 0
Conditions | mass density [kg/m3] | viscosity [mPa·s]
– | 768.6 | 0.335

CC#N [acetonitrile] + CCCCCCCC(=O)[O-].CC[NH+](C(C)C)C(C)C
[2], x2 = 0
Conditions | mass density [kg/m3] | viscosity [mPa·s]
– | 768.6 | 0.335

CCCCCCC(=O)O [heptanoic acid]
Conditions | mass density [kg/m3]
[1] | 918

CCCCCCCC(=O)O [octanoic acid]
Conditions | mass density [kg/m3]
[1] | 910

O [water] + CCCCCCC(=O)[O-].CC[NH+](C(C)C)C(C)C
Conditions | viscosity [mPa·s]
[2], x2 = 0 | 0.891

O [water] + CCCCCCCC(=O)[O-].CC[NH+](C(C)C)C(C)C
Conditions | viscosity [mPa·s]
[2], x2 = 0 | 0.891
